From patent US11161856B2 (H. Lundbeck A/S, priority 2017, dated 2021)

How the values were obtained:
Format in all cases: biochemical
MGLL = target: T1, MGLL (Mus musculus, UniProt O35678); assay: In vitro competitive activity-based protein profiling, mouse brain proteome (MGLL); set-up: IC50 MGLL Brain (Mouse, μM): scale not given here; conditions: for % Inh MGLL Brain (Mouse, μM): concentration not given (μM)
T1 construct: Brain; from tissue; host or cells: mouse brain proteome
T1 sequence (O35678 1-303): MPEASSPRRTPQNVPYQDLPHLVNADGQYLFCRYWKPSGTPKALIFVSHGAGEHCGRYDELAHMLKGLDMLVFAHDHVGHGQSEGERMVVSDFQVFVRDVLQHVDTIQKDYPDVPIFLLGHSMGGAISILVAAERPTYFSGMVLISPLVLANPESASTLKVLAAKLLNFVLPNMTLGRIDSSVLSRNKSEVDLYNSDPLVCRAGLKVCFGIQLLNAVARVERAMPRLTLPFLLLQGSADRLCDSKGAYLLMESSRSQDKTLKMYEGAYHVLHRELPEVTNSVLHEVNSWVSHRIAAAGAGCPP

MAGL = target: T2, MAGL (Homo sapiens, UniProt Q99685); assay: In vitro competitive activity-based protein profiling (FP-Rh or HT-01 probe, gel-based); set-up: IC50 MGLL PC3 (Human, μM) / IC50 MGLL PFC (Human, μM): scale not given here; conditions: for % Inh MGLL PC3 (Human, μM) / IC50 MGLL PC3 (Human, μM): PC3 cell proteome; for % Inh MGLL PC3 (Human, μM) / % Inh MGLL PFC (Human, μM): concentration not given (μM); for IC50 MGLL PFC (Human, μM) / % Inh MGLL PFC (Human, μM): prefrontal cortex (PFC) proteome
T2 construct: Proteomes (human prefrontal cortex or cell membrane fractions); from tissue
T2 sequence (Q99685 1-303): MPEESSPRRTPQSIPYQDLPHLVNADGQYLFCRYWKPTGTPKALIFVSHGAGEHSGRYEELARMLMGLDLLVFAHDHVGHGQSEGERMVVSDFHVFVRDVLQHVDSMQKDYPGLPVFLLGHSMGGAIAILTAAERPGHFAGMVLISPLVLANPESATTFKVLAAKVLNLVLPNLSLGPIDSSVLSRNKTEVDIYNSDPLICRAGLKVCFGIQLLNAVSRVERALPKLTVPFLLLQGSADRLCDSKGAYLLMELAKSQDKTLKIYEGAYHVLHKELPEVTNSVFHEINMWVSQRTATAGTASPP
Protocol: (§1) In Vitro Competitive Activity-Based Protein Profiling.
(§2) Proteomes (human prefrontal cortex or cell membrane fractions) (50 μL, 1.0 mg/mL total protein concentration) were preincubated with varying concentrations of inhibitors at 37° C. After 30 min, FP-Rh or HT-01 (1.0 μL, 50 μM in DMSO) was added and the mixture was incubated for another 30 min at room temperature. Reactions were quenched with SDS loading buffer (15 μL-4×) and run on SDS-PAGE.

ABHD6 = target: T3, ABHD6 (Mus musculus, UniProt Q8R2Y0); assay: In vitro competitive activity-based protein profiling, mouse brain proteome (ABHD6); conditions: mouse brain proteome; concentration not given (μM)
T3 construct: Brain; from tissue; host or cells: mouse brain proteome
T3 sequence (Q8R2Y0 1-336): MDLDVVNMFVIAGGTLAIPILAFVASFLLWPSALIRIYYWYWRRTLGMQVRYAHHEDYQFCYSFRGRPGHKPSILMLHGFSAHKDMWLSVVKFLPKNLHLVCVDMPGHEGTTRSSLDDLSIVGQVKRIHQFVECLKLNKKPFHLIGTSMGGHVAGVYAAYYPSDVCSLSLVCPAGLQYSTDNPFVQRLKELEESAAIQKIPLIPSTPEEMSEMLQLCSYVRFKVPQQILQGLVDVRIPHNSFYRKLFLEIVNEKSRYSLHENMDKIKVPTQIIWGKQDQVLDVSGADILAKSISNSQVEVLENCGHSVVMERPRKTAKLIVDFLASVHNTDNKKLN
Protocol: [The source words this procedure for another target and reports this target under the same test.] as §1, §2

CC(C)(C#Cc1c(Cl)cccc1CN1CCCC12CCN(C(=O)OC(C(F)(F)F)C(F)(F)F)CC2)C(=O)O [Example 1, 4-(2-Chloro-6-((8-(((1,1,1,3,3,3-hexafluoropropan-2-yl)oxy)carbonyl)-1,8-diazaspiro[4.5]decan-1-yl)methyl)phenyl)-2,2-dimethylbut-3-ynoic acid]
% Inh MGLL Brain (Mouse, μM) (MGLL): ### (### is ≥75%)
% Inh MGLL PC3 (Human, μM) (MAGL): ### (### is ≥75%)
% Inh ABHD6 Brain (Mouse, μM) (ABHD6): # (# is ≤25%)

O=C(O)CN1CCN(c2cc(CN3CCCC34CCN(C(=O)OC(C(F)(F)F)C(F)(F)F)CC4)cc(C(F)(F)F)c2)CC1 [Example 2, 2-(4-(3-((8-(((1,1,1,3,3,3-Hexafluoropropan-2-yl)oxy)carbonyl)-1,8-diazaspiro[4.5]decan-1-yl)methyl)-5-(trifluoromethyl)phenyl)piperazin-1-yl)acetic acid]
% Inh MGLL Brain (Mouse, μM) (MGLL): ### (### is ≥75%)
% Inh MGLL PC3 (Human, μM) (MAGL): ### (### is ≥75%)
% Inh ABHD6 Brain (Mouse, μM) (ABHD6): # (# is ≤25%)

O=C(O)CN1CCN(c2cc(C(F)(F)F)ccc2CN2CCCC23CCN(C(=O)OC(C(F)(F)F)C(F)(F)F)CC3)CC1 [Example 3, 2-(4-(2-((8-(((1,1,1,3,3,3-Hexafluoropropan-2-yl)oxy)carbonyl)-1,8-diazaspiro[4.5]decan-1-yl)methyl)-5-(trifluoromethyl)phenyl)piperazin-1-yl)acetic acid]
IC50 MGLL Brain (Mouse, μM) (MGLL): * * *
% Inh MGLL Brain (Mouse, μM) (MGLL): ### (### is ≥75%)
IC50 MGLL PC3 (Human, μM) (MAGL): * * *
% Inh MGLL PC3 (Human, μM) (MAGL): ### (### is ≥75%)
IC50 MGLL PFC (Human, μM) (MAGL): * * *
% Inh ABHD6 Brain (Mouse, μM) (ABHD6): # (# is ≤25%)

O=C(OC(C(F)(F)F)C(F)(F)F)N1CCC2(CCCN2Cc2cc(F)cc(C3(C(=O)O)CCCC3)c2)CC1 [Example 4, 1-(3-Fluoro-5-((8-(((1,1,1,3,3,3-hexafluoropropan-2-yl)oxy)carbonyl)-1,8-diazaspiro[4.5]decan-1-yl)methyl)phenyl)cyclopentane-1-carboxylic acid]
% Inh MGLL Brain (Mouse, μM) (MGLL): ### (### is ≥75%)
IC50 MGLL PC3 (Human, μM) (MAGL): * * *
% Inh MGLL PC3 (Human, μM) (MAGL): ### (### is ≥75%)
% Inh ABHD6 Brain (Mouse, μM) (ABHD6): # (# is ≤25%)

CC(C)(C#Cc1cc(C(F)(F)F)ccc1CN1CCCC12CCN(C(=O)OC(C(F)(F)F)C(F)(F)F)CC2)C(=O)O [Example 5, 4-(2-((8-(((1,1,1,3,3,3-Hexafluoropropan-2-yl)oxy)carbonyl)-1,8-diazaspiro[4.5]decan-1-yl)methyl)-5-(trifluoromethyl)phenyl)-2,2-dimethylbut-3-ynoic acid]
% Inh MGLL Brain (Mouse, μM) (MGLL): ### (### is ≥75%)
IC50 MGLL PC3 (Human, μM) (MAGL): * * *
% Inh MGLL PC3 (Human, μM) (MAGL): ### (### is ≥75%)
% Inh ABHD6 Brain (Mouse, μM) (ABHD6): # (# is ≤25%)

O=C(O)CN1CC2CC1CN2c1cc(C(F)(F)F)ccc1CN1CCCC12CCN(C(=O)OC(C(F)(F)F)C(F)(F)F)CC2 (stereo not drawn) [Example 6]
IC50 MGLL PC3 (Human, μM) (MAGL): * * *
IC50 MGLL PFC (Human, μM) (MAGL): * * *

O=C(OC(C(F)(F)F)C(F)(F)F)N1CCC2(CCCN2Cc2ccc(C(F)(F)F)cc2C2(C(=O)O)CCCC2)CC1 [Example 7, 1-(2-((8-(((1,1,1,3,3,3-hexafluoropropan-2-yl)oxy)carbonyl)-1,8-diazaspiro[4.5]decan-1-yl)methyl)-5-(trifluoromethyl)phenyl)cyclopentane-1-carboxylic acid]
% Inh MGLL Brain (Mouse, μM) (MGLL): ### (### is ≥75%)
IC50 MGLL PC3 (Human, μM) (MAGL): * * *
% Inh MGLL PFC (Human, μM) (MAGL): ### (### is ≥75%)
% Inh ABHD6 Brain (Mouse, μM) (ABHD6): # (# is ≤25%)

O=C(OC(C(F)(F)F)C(F)(F)F)N1CCC2(CCCN2Cc2cc(C(F)(F)F)cc(C3(C(=O)O)CCCC3)c2)CC1 [Example 8, 1-(3-((8-(((1,1,1,3,3,3-Hexafluoropropan-2-yl)oxy)carbonyl)-1,8-diazaspiro[4.5]decan-1-yl)methyl)-5-(trifluoromethyl)phenyl)cyclopentane-1-carboxylic acid]
% Inh MGLL Brain (Mouse, μM) (MGLL): ### (### is ≥75%)
% Inh MGLL PFC (Human, μM) (MAGL): ### (### is ≥75%)
% Inh ABHD6 Brain (Mouse, μM) (ABHD6): ## (## is between 25 and 75%)

CN(Cc1cccc(Cl)c1C1(C(=O)O)CCCC1)C1(C)CCN(C(=O)OC(C(F)(F)F)C(F)(F)F)CC1 [Example 9, 1-(2-Chloro-6-(((1-(((1,1,1,3,3,3-hexafluoropropan-2-yl)oxy)carbonyl)-4-methylpiperidin-4-yl)(methyl)amino)methyl)phenyl)cyclopentane-1-carboxylic acid]
% Inh MGLL Brain (Mouse, μM) (MGLL): ### (### is ≥75%)
IC50 MGLL PC3 (Human, μM) (MAGL): * * *
% Inh MGLL PC3 (Human, μM) (MAGL): ### (### is ≥75%)
% Inh ABHD6 Brain (Mouse, μM) (ABHD6): # (# is ≤25%)

CN(Cc1ccc(C(F)(F)F)cc1N1CCC(C(=O)O)C1)C1(C)CCN(C(=O)OC(C(F)(F)F)C(F)(F)F)CC1 (stereo not drawn) [Example 118, l-(2-(((1-(((1,1,1,3,3,3-Hexailuoropropan-2-yl)oxy)carbonyl)-4-methylpiperidin-4-yl)(methyl)amino)methyl)-5-(trifluoromethyl)phenyl)pyrrolidine-3-carboxylic acid]
% Inh MGLL PFC (Human, μM) (MAGL): ### (### is ≥75%)
% Inh ABHD6 Brain (Mouse, μM) (ABHD6): ## (## is between 25 and 75%)

CC(=O)N1CC2(CCN(c3cc(Cl)cc(CN4CCCC45CN(C(=O)OC(C(F)(F)F)C(F)(F)F)C5)c3)CC2)C1 [Example 238, 1,1,1,3,3,3-Hexafluoropropan-2-yl 5-(3-(2-acetyl-2,7-diazaspiro[3.5]nonan-7-yl)-5-chlorobenzyl)-2,5- .diazaspiro[3.4]octane-2-carboxylate]
% Inh MGLL Brain (Mouse, μM) (MGLL): ### (### is ≥75%)
% Inh ABHD6 Brain (Mouse, μM) (ABHD6): ### (### is ≥75%)

CCN1CCC2(CC1)CCN(c1cc(Cl)cc(CN3CCCC34CN(C(=O)OC(C(F)(F)F)C(F)(F)F)C4)c1)C2 [Example 239, 1,1,1,3,3,3-Hexafluoropropan-2-yl 5-(3-chloro-5-(8-ethyl-2,8-diazaspiro[4.5]decan-2-yl)benzyl)-2,5-diazaspiro[3,4]octane-2-carboxylate]
% Inh MGLL Brain (Mouse, μM) (MGLL): ## (## is between 25 and 75%)
% Inh ABHD6 Brain (Mouse, μM) (ABHD6): ## (## is between 25 and 75%)

CS(=O)(=O)N1CC2(CCN(c3cc(Cl)cc(CN4CCCC45CN(C(=O)OC(C(F)(F)F)C(F)(F)F)C5)c3)CC2)C1 [Example 240, 1,1,1,3,3,3-Hexafluoropropan-2-yl 5-(3-chloro-5-(2-(methylsulfonyl)-2,7-diazaspiro[3.5]nonan-7-yl)benzyl)-2,5-diazaspiro[3.4]octane-2-carboxylate]
% Inh MGLL Brain (Mouse, μM) (MGLL): ### (### is ≥75%)
% Inh ABHD6 Brain (Mouse, μM) (ABHD6): ### (### is ≥75%)

CCN1CC2(CCN(c3cc(Cl)cc(CN4CCCC45CN(C(=O)OC(C(F)(F)F)C(F)(F)F)C5)c3)CC2)C1 [Example 241, 1,1,1,3,3,3-Hexafluoropropan-2-yl 5-(3-chloro-5-(2-ethyl-2,7-diazaspiro[3,5]nonan-7-yl)benzyl)-2,5-diazaspiro[3,4]octane-2-carboxylate]
% Inh MGLL Brain (Mouse, μM) (MGLL): # (# is ≤25%)
% Inh ABHD6 Brain (Mouse, μM) (ABHD6): # (# is ≤25%)

CS(=O)(=O)N1CCC2(CCN(c3cc(C(F)(F)F)ccc3CN3CCC4(CCN(C(=O)OC(C(F)(F)F)C(F)(F)F)C4)C3)CC2)C1 (stereo not drawn) [Example 242, 1,1,1,3,3,3-Hexafluoropropan-2-yl 7-(2-(2-(methylsulfonyl)-2,8-diazaspiro[4.5]decan-8-yl)-4-(trifluoromethyl)benzyl)-2,7-diazaspiro[4.4]nonane-2-carboxylate]
% Inh MGLL Brain (Mouse, μM) (MGLL): ### (### is ≥75%)
% Inh ABHD6 Brain (Mouse, μM) (ABHD6): ## (## is between 25 and 75%)
